Measurements from patent US9060985B2, “Use of rosmarinic acid and the derivatives thereof to treat ciguatera” (priority 2009, dated 2015).
≈ marks a conversion by molar mass, not a printed value.

What was measured:
[1] = test system: ciguatoxins; conditions: cited from earlier work
[2] = test system: symptoms of ciguatera; conditions: cited from earlier work
[3] = test system: voltage-dependent sodium channels; format: binding, rat
[4] = test system: neuroblastoma cell cultures; test: Inhibition of the cytotoxicity caused by extracts of toxic loach or toxic giant clams on neuroblastoma cell cultures (MTT, with ouabain/veratridine); format: cell-based
Method: The sample of salmon-pink loach (Ref15), supplied by the Louis Malardé Institute, was collected at Mururoa (Tuamotu Archipelago, French Polynesia). The sample of giant clam (GPS59) was collected at Raivavae (Austral Islands, French Polynesia). The toxicity of these two samples was confirmed beforehand on mice, by a cytotoxicity assay on neuroblastomas and radioligand assays with P-CTX-3.
The samples are stored at 4° C. The rosmarinic acid was obtained from Sigma.
96-well plates are prepared with 50 000 cells in 100 μL of medium per well. The outer wells are not used, to avoid variations of response due to edge effects. The cells are incubated for 24 h at 37° C. with 5% CO2 to give them time to adhere.
A mixture of ouabain (cardiac glycoside involved in cellular permeability, inhibiting the Na/K pump) and veratridine (polycyclic alkaloid which leads to persistent activation of the sodium channels), designated O/V hereinafter, in which the two active substances are present respectively at a final concentration of 0.33 and 0.033 mM in 20 μl, is added to the wells.
Ouabain is an inhibitor of ATPase Na^+/K^+, and veratridine is an activator of the sodium channels. The combined action of these two products induces a raised intracellular level of sodium and causes a change in the morphology of the cells, which greatly reduces their viability. […]
All the plates have a standard control of culture medium (cells only) and a control with cells in the presence of the O/V mixture. Rosmarinic acid is tested alone with the O/V mixture to record effects of cytotoxicity or of cellular proliferation as well as any interferences of coloration due to strong concentrations of products, which can lead to false positives in spectrophotometer readings. […]
After incubation for 1.5 h, the formazan crystals that formed are dissolved with 150 μL of DMSO (dimethylsulfoxide) for each well. After homogenization, the plates are read with a UV plate reader at 490 nm. Then the data are transferred and processed using Excel® and analyzed with the GraphPad Prism® software (version 4).

[5] = test system: mouse; conditions: cited from earlier work

C=C/C=C\CC[C@H]1O[C@H]2CC[C@@]3(C)O[C@H]4[C@@H](O)C[C@@]5(C)O[C@@H](CC/C=C(C)/C(C)=C/C=O)[C@@H](C)C[C@@H]5O[C@@H]4C[C@@H]3O[C@@H]2CC[C@@]1(C)O [brevenal]
inhibition of neurotoxic effects induced by the ciguatoxins [1]: powerful inhibitor

OC[C@@H](O)[C@@H](O)[C@H](O)[C@H](O)CO [mannitol, Mannitol]
effect on neurological and muscular disorders ([2]; administered 48 to 72 hours after intoxication): capable of alleviating neurological and muscular disorders
effect on the symptoms of ciguatera ([2]; blind clinical trials, mannitol and a saline solution, after 24 hours): did not, however, show a beneficial effect

O=C(/C=C/c1ccc(O)c(O)c1)O[C@H](Cc1ccc(O)c(O)c1)C(=O)O [rosmarinic acid, (R)-a-[[3-(3,4-dihydroxyphenyl)-1-oxo-2E-propenyl]oxy]-3,4-dihydroxybenzenepropanoic acid]
IC50 (50% inhibition of interaction with [^3H]PbTx-3) [3]: 880 µg/mL
Ki [3]: 1.43 mM
measured radioactivity (replacement of tritiated brevetoxin on the sodium channels) [3]: decrease in the measured radioactivity
IC50 ([4]; Neuroblastoma cell, neuroblastomas, toxic extracts, estimated, read-out: IC50 (concentration for 50% decrease in cellular mortality caused by ciguatoxins and associated toxins)): 500 to 1000 µg/mL (≈ 1390 to 2780 µM)
concentration from which cellular viability is significantly increased ([4]; toxic giant clam extract GPS59 at 100 μg/ml, O/V mixture): ≥ 50 µg/mL
effect on cellular viability of neuroblastomas (cytotoxicity of toxic giant clam extract) ([4]; toxic giant clam extract GPS59 at 100 μg/ml, O/V mixture, rosmarinic acid 10 to 1000 μg/ml, 18 h, MTT): protective effect
toxicity ([5]; at 531 mg/kg i.v. in the mouse): does not display toxicity
LD50 ([5]; intravenously (i.v.) in the mouse): 531 mg/kg
